Results on 31 molecules are retold here after patent US10005767B2, “Compositions and methods for inhibition of the JAK pathway” (Rigel Pharmaceuticals, Inc., priority 2009, dated 2018).

The subject of this test is human primary T-cells, IL-2 stimulated proliferation (JAK-1 and JAK-3 dependent; reported as JAK3 activity). Description: Human primary T-cell proliferation stimulated by IL-2 (Example 3). Format: cell-based. Conditions: tested under conditions described in Example 3 (IL-2 stimulated human primary T-cell proliferation), read-out: ability to inhibit JAK3 activity, IC50 range (Table V). An outline of the steps: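 Peripheral-blood human T-cells pre-activated via TCR/CD28, IL-2-starved overnight, then cultured 72 h at 37 °C with compound in Yssel's medium containing IL-2 (80 U/mL in cell suspension). Proliferation read as viable-cell ATP by CellTiter-Glo luminescence; reduction versus control taken as JAK pathway inhibition.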

Where a name gives a salt, the structure may show the parent alone. Read-outs that look alike come from different tables or passages of the source.

For orientation: IC50 means the midpoint of a concentration-inhibition curve. On to `CCc1ccccc1Nc1ncc(C)c(Nc2ccc3oc(=O)[nH]c3c2)n1` [Compound I-502, 5-(2-(2-ethylphenylamino)-5-methylpyrimidin-4-ylamino)benzo[d]oxazol-2(3H)-one], for which the IC50 (Homo sapiens, T-cell) is 500 to 5000 nM.
Same read-out and setting: the same measure for `Cc1cnc(Nc2cnc(N3C[C@@H]4C[C@H]3CN4C)c(F)c2)nc1Nc1ccc2oc(=O)[nH]c2c1` [II-40, N4-(benzoxazolin-2-on-5-yl)-N2-[3-fluoro-2-((1S,4S)-5-methyl-2,5-diazabicyclo[2.2.1]heptan-2-yl)pyridin-5-yl]-5-methylpyrimidine-2,4-diamine]: less than 500 nM; for `Cc1cnc(Nc2ccc(N3C[C@@H](C)N[C@@H](C)C3)nc2)nc1Nc1ccc2oc(=O)[nH]c2c1` [II-131, N2-[2-(cis-3,5-dimethylpiperazino)pyridin-5-yl]-5-methyl-N4-(2-oxo-2,3-dihydro-1,3-benzoxazol-5-yl)-2,4-pyrimidinediamine]: less than 500 nM; for `Cc1cnc(Nc2cccc(C(C)N3CCCCC3)c2)nc1Nc1ccc2oc(=O)[nH]c2c1` (stereo not shown) [Compound I-215, 5-(5-methyl-2-(3-(1-(piperidin-1-yl)ethyl)phenylamino)pyrimidin-4-ylamino)benzo[d]oxazol-2(3H)-one]: less than 500 nM.
On to `Cc1cnc(Nc2ccc3c(c2)OCC(=O)N3)nc1Nc1ccc2oc(=O)[nH]c2c1` [IV-32, 7-(5-methyl-4-(2-oxo-2,3-dihydrobenzo[d]oxazol-5-ylamino)pyrimidin-2-ylamino)-2H-benzo[b][1,4]oxazin-3 (4H)-one], for which the IC50 (Homo sapiens, T-cell) was less than 500 nM.
With `Cn1c(=O)oc2ccc(Nc3nc(Nc4ccc(NS(C)(=O)=O)cc4)ncc3F)cc21` [Compound I-80, N2-((4-methylsulfonylamino)phenyl)-N4-(3-methyl-2-oxo-2,3-dihydrobenzo[d]oxazol-5-yl)-5-fluoropyrimidine-2,4-diamine], the IC50 is less than 500 nM.
Regarding `COC(=O)N1C2CCC1CC(c1ncc(Nc3ncc(C)c(Nc4ccc5oc(=O)[nH]c5c4)n3)cc1C)C2` (stereo not shown) [II-68, methyl 3-(3-methyl-5-(5-methyl-4-(2-oxo-2,3-dihydrobenzo[d]oxazol-5-ylamino)pyrimidin-2-ylamino)pyridin-2-yl)-8-azabicyclo[3.2.1]octane-8-carboxylate], the IC50 (Homo sapiens, T-cell) is less than 500 nM.
As to `Cc1cnc(Nc2ccc(N3C[C@@H](C)N(C)C[C@@H]3C)nc2)nc1Nc1ccc2oc(=O)[nH]c2c1` (relative stereo) [II-129, 5-methyl-N4-(2-oxo-2,3-dihydro-1,3-benzoxazol-5-yl)-N2-[2-(trans-2,4,5-trimethylpiperazino)pyridin-5-yl]-2,4-pyrimidinediamine], the IC50 (Homo sapiens, T-cell) was less than 500 nM.
Turning to `Cc1cnc(Nc2cccc(N3CCOCC3)c2)nc1Nc1ccc2[nH]c(=O)oc2c1` [Compound I-48, N4-(benzo[d]oxazol-2(3H)-on-6-yl)-N2-((3-morpholinyl)phenyl)-5-methylpyrimidine-2,4-diamine], the IC50 was less than 500 nM.
Regarding `Cc1cnc(Nc2ccc(C(C)N3CCOCC3)cc2)nc1Nc1ccc2oc(=O)[nH]c2c1` (stereo not shown) [Compound I-204, 5-(5-methyl-2-(4-(1-morpholinoethyl)phenylamino)pyrimidin-4-ylamino)benzo[d]oxazol-2(3H)-one], the IC50 (Homo sapiens, T-cell) is less than 500 nM.
The same measure, in the same setting: the same measure for `Cc1cnc(Nc2cnc(C3CC4CCC(C3)N4C(=O)C(F)(F)F)c(C)c2)nc1Nc1ccc2oc(=O)[nH]c2c1` (stereo not shown) [II-69, 5-(5-methyl-2-(5-methyl-6-(8-(2,2,2-trifluoroacetyl)-8-aza-bicyclo[3.2.1]octan-3-yl)pyridin-3-ylamino)pyrimidin-4-ylamino)benzo[d]oxazol-2(3H)-one]: less than 500 nM; for `CCc1ccc(Nc2ncc(C)c(Nc3ccc4oc(=O)[nH]c4c3)n2)cc1` [Compound I-504, 5-(2-(4-ethylphenylamino)-5-methylpyrimidin-4-ylamino)benzo[d]oxazol-2(3H)-one]: less than 500 nM; for `COc1ccc(Nc2ncc(C)c(Nc3ccc4oc(=O)[nH]c4c3)n2)cc1OC(F)F` [Compound I-116, N2-(3-(difluoromethoxy)-4-methoxyphenyl)-N4-(benzo[d]oxazol-2(3H)-on-5-yl)-5-methylpyrimidine-2,4-diamine]: less than 500 nM.
Turning to `COc1cc(Nc2ncc(C)c(Nc3ccc4oc(=O)[nH]c4c3)n2)ccc1-c1ccncc1` [Compound I-494, 5-(2-(3-methoxy-4-(pyridin-4-yl)phenylamino)-5-methylpyrimidin-4-ylamino)benzo[d]oxazol-2(3H)-one formate salt], the IC50 (Homo sapiens, T-cell) lay in the range of 500 to 5000 nM.
In the case of `Cc1cnc(Nc2cc(C)c(C)c(C)c2)nc1Nc1ccc2oc(=O)n(COP(=O)(O)O)c2c1` [Compound I-406, 5-methyl-N4-[3-(phosphonooxy)methyl-2-oxo-2,3-dihydro-1,3-benzoxazol-5-yl]-N2-(3,4,5-trimethyl)phenyl-2,4-pyrimidinediamine], the IC50 was 500 to 5000 nM.
In the case of `COc1cc(Nc2ncc(C)c(Nc3ccc4oc(=O)[nH]c4c3)n2)cc(OC)c1C` [Compound I-529, 5-(2-(3,5-dimethoxy-4-methylphenylamino)-5-methylpyrimidin-4-ylamino)benzo[d]oxazol-2(3H)-one], the IC50 (Homo sapiens, T-cell) is less than 500 nM.
Regarding `Cc1cnc(Nc2cccc(OC(C)(C)C(N)=O)c2)nc1Nc1ccc2oc(=O)[nH]c2c1` [Compound I-335, N2-[3-(1-aminocarbonyl-1-methyl)ethoxy]phenyl-5-methyl-N4-(2-oxo-2,3-dihydro-1,3-benzoxazol-5-yl)-2,4-pyrimidinediamine], the IC50 was less than 500 nM.
On to `Cc1cnc(Nc2ccc(S(C)(=O)=O)cc2)nc1Nc1ccc2c(c1)oc(=O)n2C` [Compound I-66, N2-((4-methylsulfonyl)phenyl)-N4-(3-methyl-2-oxo-2,3-dihydrobenzo[d]oxazol-6-yl)-5-methylpyrimidine-2,4-diamine], for which the IC50 was less than 500 nM.
In the case of `Cc1cc(CF)cc(Nc2ncc(C)c(Nc3ccc4oc(=O)[nH]c4c3)n2)c1` [Compound I-238, 5-(2-(3-(fluoromethyl)-5-methylphenylamino)-5-methylpyrimidin-4-ylamino)benzo[d]oxazol-2(3H)-one], the IC50 (Homo sapiens, T-cell) is less than 500 nM.
In the case of `Cc1cnc(Nc2cccc(NS(C)(=O)=O)c2)nc1Nc1ccc2c(c1)n(C)c(=O)n2C` [Compound I-37, N4-(1,3-dimethylbenzimidazolin-2-on-5-yl)-N2-((3-methylsulfonylamino)phenyl)-5-methylpyrimidine-2,4-diamine], the IC50 was less than 500 nM.
With `Cc1cnc(Nc2cccc(C(C)N3CCCC3)c2)nc1Nc1ccc2oc(=O)[nH]c2c1` (stereo not shown) [Compound I-212, 5-(5-methyl-2-(3-(1-(pyrrolidin-1-yl)ethyl)phenylamino)pyrimidin-4-ylamino)benzo[d]oxazol-2(3H)-one], the IC50 (Homo sapiens, T-cell) is less than 500 nM.
As to `Cc1cnc(Nc2ccc(N[C@H]3CCCN(Cc4ccccc4)C3)nc2)nc1Nc1ccc2oc(=O)[nH]c2c1` [II-99, (S)-5-(2-(6-(1-benzylpiperidin-3-ylamino)pyridin-3-ylamino)-5-methylpyrimidin-4-ylamino)benzo[d]oxazol-2(3H)-one], the IC50 (Homo sapiens, T-cell) is less than 500 nM.
As to `Cc1cnc(Nc2ccc3cnoc3c2)nc1Nc1ccc2oc(=O)[nH]c2c1` [IV-5, N4-(benzo[d]oxazol-2(3H)-on-5-yl)-N2-(1,2-benzisoxazol-6-yl)-5-methylpyrimidine-2,4-diamine], the IC50 (Homo sapiens, T-cell) is less than 500 nM.
With `Cc1cnc(Nc2ccc3c(c2)C(NC(C)C)CCCC3)nc1Nc1ccc2oc(=O)[nH]c2c1` (stereo not shown) [IV-12, 5-[2-(9-Isopropylamino-6,7,8,9-tetrahydro-5H-benzocyclohepten-2-ylamino)-5-methyl-pyrimidin-4-ylamino]-3H-benzooxazol-2-one], for the setting “Homo sapiens, T-cell”, the IC50 was less than 500 nM.
Turning to `Cc1cnc(Nc2cc(C)c(I)c(C)c2)nc1Nc1ccc2oc(=O)[nH]c2c1` [Compound I-527, 5-[2-(4-Iodo-3,5-dimethyl-phenylamino)-5-methyl-pyrimidin-4-ylamino]-3H-benzooxazol-2-one], the IC50 (Homo sapiens, T-cell) is less than 500 nM.
Turning to `Cc1cnc(Nc2ccc(C(N)=O)cc2)nc1Nc1ccc2oc(=O)n(COP(=O)(OC(C)(C)C)OC(C)(C)C)c2c1` [Compound I-146, di-tert-butyl (5-(2-(4-carbamoylphenylamino)-5-methylpyrimidin-4-ylamino)-2-oxobenzo[d]oxazol-3(2H)-yl)methyl phosphate], the IC50 (Homo sapiens, T-cell) is 500 to 5000 nM.
Turning to `Cc1cnc(Nc2cccc(C(=O)N3CCN(C)CC3)c2)nc1Nc1ccc2oc(=O)[nH]c2c1` [Compound I-321, 5-methyl-N2-[3-(4-methylpiperazin-1-yl)carbonyl]phenyl-N4-(2-oxo-2,3-dihydro-1,3-benzoxazol-5-yl)-2,4-pyrimidinediamine], the IC50 is less than 500 nM.
The same measure, in the same setting: the same measure for `Cc1cnc(Nc2cccc(S(C)(=O)=O)c2)nc1Nc1ccc2[nH]c(=O)oc2c1` [Compound I-100, N2-((3-methylsulfonyl)phenyl)-N4-(2-oxo-2,3-dihydrobenzo[d]oxazol-6-yl)-5-methylpyrimidine-2,4-diamine]: less than 500 nM.
Turning to `Cc1cnc(Nc2ccc(C(=O)NC3CCC3)c(C(F)(F)F)c2)nc1Nc1ccc2oc(=O)[nH]c2c1` [Compound I-218, N-cyclobutyl-4-(5-methyl-4-(2-oxo-2,3-dihydrobenzo[d]oxazol-5-ylamino)pyrimidin-2-ylamino)-2-(trifluoromethyl)benzamide], the IC50 (Homo sapiens, T-cell) is less than 500 nM.
In the case of `Cc1cnc(Nc2ccc(C(=O)NC(C)C)cc2)nc1Nc1ccc2oc(=O)[nH]c2c1` [Compound I-139, N-Isopropyl-4-[5-methyl-4-(2-oxo-2,3-dihydro-benzooxazol-5-ylamino)-pyrimidin-2-ylamino]-benzamide], the IC50 (Homo sapiens, T-cell) was less than 500 nM.
With `CN1CCN(c2ccc(Nc3ncc(C(F)(F)F)c(Nc4ccc5oc(=O)[nH]c5c4)n3)cn2)CC1` [II-85, 5-(2-(6-(4-methylpiperazin-1-yl)pyridin-3-ylamino)-5-(trifluoromethyl)pyrimidin-4-ylamino)benzo[d]oxazol-2(3H)-one], the IC50 (Homo sapiens, T-cell) is less than 500 nM.
